The values that follow are results of earlier work, collected in patent publication US20100144738A1, “INHIBITORS OF C-MET AND USES THEREOF” (priority 2006, published 2010).

Where a name gives a salt, the structure may show the parent alone. Read-outs that look alike come from different tables or passages of the source.

Data set [1] concerns the target c-Met (Homo sapiens, UniProt P08581). The note with it: single dose.
Data set [2] relates to c-Met mutations.

c-Met, sequence (P08581 25-1390): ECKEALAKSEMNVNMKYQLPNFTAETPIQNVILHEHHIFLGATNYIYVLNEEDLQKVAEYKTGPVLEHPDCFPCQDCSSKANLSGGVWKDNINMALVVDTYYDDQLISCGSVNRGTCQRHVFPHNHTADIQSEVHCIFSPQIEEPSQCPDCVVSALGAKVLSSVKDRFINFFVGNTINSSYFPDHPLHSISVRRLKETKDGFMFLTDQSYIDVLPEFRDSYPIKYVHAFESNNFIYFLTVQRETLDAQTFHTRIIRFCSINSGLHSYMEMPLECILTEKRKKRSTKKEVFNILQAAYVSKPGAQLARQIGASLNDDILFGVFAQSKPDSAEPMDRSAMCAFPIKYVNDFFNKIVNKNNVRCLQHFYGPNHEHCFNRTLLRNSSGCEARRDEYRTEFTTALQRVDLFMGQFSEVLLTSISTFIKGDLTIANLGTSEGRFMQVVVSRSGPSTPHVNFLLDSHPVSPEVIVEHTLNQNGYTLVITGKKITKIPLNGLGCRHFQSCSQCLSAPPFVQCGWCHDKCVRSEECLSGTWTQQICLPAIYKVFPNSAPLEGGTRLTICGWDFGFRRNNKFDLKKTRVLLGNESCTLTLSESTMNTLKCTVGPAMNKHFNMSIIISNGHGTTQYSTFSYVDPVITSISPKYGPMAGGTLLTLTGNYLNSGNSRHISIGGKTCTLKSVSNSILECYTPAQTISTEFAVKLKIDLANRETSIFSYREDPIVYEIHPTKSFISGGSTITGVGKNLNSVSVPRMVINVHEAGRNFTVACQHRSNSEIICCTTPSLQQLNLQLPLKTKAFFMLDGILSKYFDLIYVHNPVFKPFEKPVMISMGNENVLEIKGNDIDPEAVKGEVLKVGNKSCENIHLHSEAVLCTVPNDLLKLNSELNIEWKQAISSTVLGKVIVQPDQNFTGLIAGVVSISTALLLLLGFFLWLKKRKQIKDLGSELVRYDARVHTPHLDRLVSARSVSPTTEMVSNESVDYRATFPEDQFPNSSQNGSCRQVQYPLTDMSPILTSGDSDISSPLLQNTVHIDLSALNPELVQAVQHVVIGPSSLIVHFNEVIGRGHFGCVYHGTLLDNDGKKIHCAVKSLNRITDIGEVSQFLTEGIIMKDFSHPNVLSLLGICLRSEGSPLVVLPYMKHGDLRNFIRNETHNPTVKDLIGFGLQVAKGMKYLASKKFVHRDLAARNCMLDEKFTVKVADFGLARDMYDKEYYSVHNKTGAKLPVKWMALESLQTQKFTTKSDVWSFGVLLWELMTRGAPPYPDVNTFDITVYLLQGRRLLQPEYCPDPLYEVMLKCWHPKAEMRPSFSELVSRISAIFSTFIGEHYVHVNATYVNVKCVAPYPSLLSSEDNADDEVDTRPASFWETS

With `Cc1[nH]c(/C=C2\C(=O)Nc3ccc(S(=O)(=O)Cc4c(Cl)cccc4Cl)cc32)c(C)c1C(=O)N1CCC[C@@H]1CN1CCCC1` [PHA-665752], the “duration of inhibition of c-Met phosphorylation in tumor xenografts” value in data set [1] was at most 12 h.

`Cc1ccc(NC(=O)c2ccc(CN3CCN(C)CC3)cc2)cc1Nc1nccc(-c2cccnc2)n1` [IMATINIB, imatinib mesylate]: the “sensitivity of mutations to imatinib” value is reported as “resistant” in data set [2] (mutations Asp816Val/Phe/Tyr) and “sensitive” in data set [2] (mutations Val560Gly, Glu839Lys, Asp820Gly).
